According to article PMC8725537, “Assessment of NSAIDs as potential inhibitors of the fatty acid amide hydrolase I (FAAH-1) using three different primary fatty acid amide substrates in vitro” (BMC Pharmacology & Toxicology, 2022):
Like-named read-outs stand apart in the source and are kept apart here. One block for each compound: values may come before it.

What was measured:
FAAH-1 [1] = biological target: T1, FAAH-1 (Rattus norvegicus, UniProt P97612); test: Inhibition of rat liver FAAH-1 oleamide hydrolase activity by NSAIDs (500 μM screen and concentration-inhibition curves); assay type: biochemical; details: for FAAH-1 oleamide hydrolase activity, % of control: 500 μM NSAID, oleamide substrate, rat liver
T1 construct: Liver obtained from male Wister rats; from tissue; host or cells: rat liver homogenate, 20,000 g membrane pellet (male Wistar rats, Charles River Laboratories)
T1 sequence (P97612 1-579): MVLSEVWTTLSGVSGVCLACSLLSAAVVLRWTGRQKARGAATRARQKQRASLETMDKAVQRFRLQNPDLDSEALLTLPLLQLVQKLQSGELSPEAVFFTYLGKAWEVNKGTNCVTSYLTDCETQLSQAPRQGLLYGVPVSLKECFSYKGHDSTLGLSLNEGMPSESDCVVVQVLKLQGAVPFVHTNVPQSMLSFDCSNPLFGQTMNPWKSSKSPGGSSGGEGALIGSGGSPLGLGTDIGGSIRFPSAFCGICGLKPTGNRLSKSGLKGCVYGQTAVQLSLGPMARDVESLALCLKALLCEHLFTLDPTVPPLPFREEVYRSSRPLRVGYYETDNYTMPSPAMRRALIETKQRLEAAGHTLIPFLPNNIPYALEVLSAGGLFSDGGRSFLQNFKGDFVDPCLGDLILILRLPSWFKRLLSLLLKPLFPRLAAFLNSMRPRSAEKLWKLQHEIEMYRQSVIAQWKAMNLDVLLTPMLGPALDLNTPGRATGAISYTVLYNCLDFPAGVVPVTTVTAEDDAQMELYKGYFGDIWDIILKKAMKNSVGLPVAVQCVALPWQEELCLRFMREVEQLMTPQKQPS
Procedure: (§1) FAAH-1 activity was studied in rat liver homogenate.
(§2) Liver obtained from male Wister rats (150–250 g, Charles River Laboratories, Wilmington, USA) which had been stored at − 40 °C was thawed. A volume of 6 ml/g wet weight of rat liver was homogenized in 0.2 M potassium phosphate buffer, pH 7.4 using a hand held homogenizer (Ultra-turrax) (Merck KGaA, Darmstadt, Germany). The resulting mixture was centrifuged at 250 g for 10 min after which the pellet obtained was re-homogenised and centrifuged as aforementioned. The supernatants were combined and centrifuged at 20,000 g for 30 min, after which the membrane containing pellet was re-suspended in 1:1^w/v 0.2 M potassium phosphate buffer, pH 7.4, and stored in 1 ml aliquots at − 40 °C.
FAAH-1 activity was assayed essentially as described previously. Briefly, rat liver homogenate was pre-incubated at 37 °C with shaking (50 × 10 rpm) for 10 min in 0.2 M phosphate buffer, pH 7.4 in 96-well microtitre plates (Thermo Scientific Inc., Waltham, USA) prior to substrate addition and incubation at 37 °C for 30 min. […] Substrate blank and a control containing 0.2 M phosphate buffer, pH 7.4, were incorporated into the experiments.
(§3) Effect of 500 μM concentration of NSAIDs (SIGMA-ALDRICH, Poole, UK) on each enzyme activity was analysed by removing the baseline line. Each specific activity was then plotted as percentage of control. Specific activity obtained at each inhibitor concentration for the concentration-inhibition curves were normalized and analysed using the inbuilt log (inhibitor) versus response variable slope (robust fit) and were constrained at the bottom (= 0.0%). Each specific activity was then plotted as percentage of the control. To determine the mode of inhibition, Vmax values were initially extrapolated from the (NH4)2SO4 standard curve plotted using the inbuilt second order polynomial (quadratic) Michaelis-Menten enzyme kinetics. These values were then adjusted using the protein concentrations of the preparations obtained from the Lowry protocol (Fig. SS1 and SS2).

FAAH-1 [2] = biological target: T1, FAAH-1; test: Mode of inhibition of rat liver FAAH-1 hydrolysis of oleamide and arachidonamide (Michaelis-Menten with inhibitor); assay type: biochemical; details: for Vmax (nmol/min/mg protein): Control (no inhibitor), compound as substrate; for Mode of inhibition of FAAH activity: Michaelis-Menten analysis, oleamide and arachidonamide substrates
Procedure: (§4) FAAH-1 activity was assayed essentially as described previously. Briefly, rat liver homogenate was pre-incubated at 37 °C with shaking (50 × 10 rpm) for 10 min in 0.2 M phosphate buffer, pH 7.4 in 96-well microtitre plates (Thermo Scientific Inc., Waltham, USA) prior to substrate addition and incubation at 37 °C for 30 min. The 100 μl total assay reaction mixtures were halted with an equivalent volume of o-phthaldehyde (OPA) developing solution (0.4 M potassium phosphate buffer, pH 11.5) and incubated further at 37 °C for 15 min before assessing fluorescence using a FLUOstar Galaxy (Excitation 390 nm, Emission 450–10 nm) (BMG LABTECH GmbH, Ortenberg, Germany). Substrate blank and a control containing 0.2 M phosphate buffer, pH 7.4, were incorporated into the experiments.
as §3, with “Data obtained were entered into a Microsoft Excel 2010 spread sheet and analysed with GraphPad Prism computer software programme (GraphPad Software Inc., San Diego, CA USA). Effect” for “Effect”
Unlike aspirin which is an irreversible inhibitor of COX enzymes, most other NSAIDs are reversible competitive inhibitors of the COX enzymes.
Data are mean ± SEM (Standard Error of the Mean) of four separate preparations (n = 4) conducted in triplicate

FAAH-1 [3] = biological target: T1, FAAH-1; test: Rat liver FAAH-1 hydrolysis of primary fatty acid amide substrates (Michaelis-Menten, OPA fluorescence ammonia assay); assay type: biochemical; details: for Km / Vmax: rat liver FAAH-1, compound as substrate, pH 7.4, mean ± SEM n = 4
Procedure: as §1, §2, §4
as §3, with “Data obtained were entered into a Microsoft Excel 2010 spread sheet and analysed with GraphPad Prism computer software programme (GraphPad Software Inc., San Diego, CA USA). Effect” for “Effect”
Fig. 1 Hydrolysis of oleamide (a), arachidonamide (b) and stearoylamide (c) by rat liver FAAH-1 activity. Rat liver FAAH-hydrolytic activity of each primary amide substrate in vitro, was assayed by quantification of ammonia released after hydrolysis. Ammonia generated in the presence of sulphite ions is reacted with alkaline o-phthaldehyde (OPA) to generate the stable fluorescent isoindole derivative (1-sulphonatoisoindole) which is quantified by fluorescent spectroscopy. Four separate experiments with three replicates on the same microtiter plate were conducted for each substrate using different rat liver preparations. Data are mean ± SEM (Standard Error of the Mean) of four separate preparations (n = 4) conducted in triplicate

rat brain FAAH-1 = tested on: rat brain FAAH-1; design: method as in PMID 23240907; details: rat brain FAAH-1, pH 7.4 ref 52; cited from earlier work
rat recombinant FAAH = tested on: rat recombinant FAAH; design: method as in PMID 10571985; details: pH 9, oleamide hydrolysis ref 45; read-out: affinity (Km); cited from earlier work
FAAH-1 in rat brain = tested on: FAAH-1 in rat brain; design: method as in ref 41 = [41]; 41. Garle MJ, Clark JS and Alexander SPH. A fluorescence-derivatisation assay for fatty acid amide hydrolase activity. 2005; pA2 Online. E-journal of the British Pharmacological Society.; details: oleamide hydrolysis, rat brain ref 41; cited from earlier work
[4] = tested on: FAAH-1 in rat liver preparations; details: cited from earlier work
FAAH = tested on: FAAH; design: method as in ref 68 = [68]; 68. Dongdem JT Dawson SP Alexander SPH Characterization of [3-(3-carbamoylphenyl) phenyl] N-cyclohexyl carbamate, an inhibitor of FAAH: effect on rat liver FAAH and HEK293T-FAAH-2 deamination of oleam; details: cited from earlier work
[5] = rat liver oleamide hydrolase activity, NSAID 4.0 × 10^-6 to 1.024 × 10^-3 M in absolute ethanol, n = 4

SMILES: CC(=O)Nc1ccc(O)cc1 [Acetaminophen]
FAAH-1 oleamide hydrolase activity, % of control (FAAH-1 [1]): appeared to enhance enzyme activity

SMILES: CCCCC/C=C\C/C=C\C/C=C\C/C=C\CCCC(N)=O [Arachidonamide]
Vmax (nmol/min/mg protein) (FAAH-1 [2]): 8.4 ± 1.2 nmol/min/mg protein | FAAH-1 capacity (Vmax) higher compared with oleamide (FAAH-1 [3]; rat liver FAAH-1): 12% | FAAH-1 capacity (Vmax) higher than that for stearoylamide (FAAH-1 [3]; rat liver FAAH-1): 75% | Km (FAAH-1 [3]): 44.9 ± 7 µM | Vmax (FAAH-1 [3]): 10.1 ± 3.0 nmol/min/mg protein

SMILES: O=C(O)c1cc(-c2ccc(F)cc2F)ccc1O [Diflunisal]
FAAH-1 oleamide hydrolase activity, % of control (FAAH-1 [1]): below 50 % of control | IC50 (FAAH-1 [1]; [5]): 708 µM

SMILES: Cc1c(N(C)CS(=O)(=O)[O-])c(=O)n(-c2ccccc2)n1C.[Na+] [Dipyrone]
pIC50 (M) (FAAH-1 [1]; [5]): 2.77 ± 0.07 M

SMILES: CC(C)Cc1ccc(C(C)C(=O)O)cc1 (stereo not drawn) [Ibuprofen]
pIC50 (rat brain FAAH-1): 3.1

SMILES: CCCCCCCC/C=C\CCCCCCCC(N)=O [Oleamide]
Km (rat recombinant FAAH): 37 ± 7 µM | Vmax (nmol/min/mg protein) (FAAH-1 [2]): 4.6 ± 0.5 nmol/min/mg protein | Vmax (FAAH-1 [3]): 8.9 ± 1.1 nmol/min/mg protein | Km (FAAH-1 [3]; read-out: Km): 177 ± 15.5 µM | Km (FAAH-1 in rat brain): 179 µM | Vmax ([4]; oleamide hydrolysis, rat liver preparations ref 41): 15 nmol.min^− 1.mg protein^− 1 | Km ([4]; oleamide hydrolysis, rat liver preparations ref 41, read-out: Km): 129 µM | Vmax ([4]; rat liver FAAH-catalysed oleamide hydrolysis ref 44): 5.7 nmol.min^− 1.mg protein^− 1 | Km ([4]; rat liver FAAH-catalysed oleamide hydrolysis ref 44, read-out: affinity (Km)): 104 µM

SMILES: CCCCCCCCCCCCCCCCCC(N)=O [Stearoylamide]
Vmax (FAAH-1 [3]): 2.5 ± 0.6 nmol/min/mg protein | Km (FAAH-1 [3]; read-out: Km): 4.6 ± 0.8 µM

SMILES: NC(=O)c1cccc(-c2cccc(OC(=O)NC3CCCCC3)c2)c1 [URB597]
Mode of FAAH inhibition (FAAH): uncompetitive

SMILES: CCO [ethanol]
FAAH-1 activity (%) (basal oleamide hydrolysis, % of control) (FAAH-1 [1]; 15% assay ethanol): 95 ± 1% | FAAH-1 activity (%) (basal oleamide hydrolysis, % of control) (FAAH-1 [1]; 20% assay ethanol): 78 ± 1% | FAAH-1 activity (%) (basal oleamide hydrolysis, % of control) (FAAH-1 [1]; 25% assay ethanol): 76 ± 4%

Continued, in another order:

FAAH-1 oleamide hydrolase activity, % of control (FAAH-1 [1]): below 50 % of control
SMILES: CC(C(=O)O)c1ccc2c(c1)[nH]c1ccc(Cl)cc12 (stereo not drawn) [Carprofen]
pIC50 (rat brain FAAH-1): 4.10

FAAH-1 oleamide hydrolase activity, % of control (FAAH-1 [1]): below 50 % of control | IC50 (FAAH-1 [1]; [5]): 1260 µM
SMILES: O=C(O)Cc1ccccc1Nc1c(Cl)cccc1Cl [Diclofenac]

Mode of inhibition of FAAH activity (FAAH-1 [2]): non-competitive type inhibition | Vmax (nmol/min/mg protein) in presence of inhibitor (FAAH-1 [2]; substrate arachidonamide, + 200 μM inhibitor): 7.2 ± 0.9 nmol/min/mg protein | Vmax (nmol/min/mg protein) in presence of inhibitor (FAAH-1 [2]; substrate oleamide, + 200 μM inhibitor): 3.8 ± 0.4 nmol/min/mg protein
SMILES: COc1ccc2c(c1)c(CC(=O)O)c(C)n2C(=O)c1ccc(Cl)cc1 [Indomethacin]
pIC50 (rat brain FAAH-1): 4.18

FAAH-1 oleamide hydrolase activity, % of control (FAAH-1 [1]): below 50 % of control | IC50 (FAAH-1 [1]; [5]): 1230 µM
SMILES: O=C(c1ccccc1)c1ccc2n1CCC2C(=O)O (stereo not drawn) [Ketorolac]

Mode of inhibition of FAAH activity (FAAH-1 [2]): non-competitive type inhibition | Vmax (nmol/min/mg protein) in presence of inhibitor (FAAH-1 [2]; substrate arachidonamide, + 100 μM inhibitor): 6.7 ± 1.0 nmol/min/mg protein | Vmax (nmol/min/mg protein) in presence of inhibitor (FAAH-1 [2]; substrate oleamide, + 100 μM inhibitor): 2.9 ± 0.1 nmol/min/mg protein | FAAH-1 oleamide hydrolase activity, % of control (FAAH-1 [1]): complete inhibition | IC50 (FAAH-1 [1]; [5]): 269 µM
SMILES: Cc1ccc(Cl)c(Nc2ccccc2C(=O)O)c1Cl [Meclofenamic acid]

IC50 (FAAH-1 [1]; [5]): 447 µM
SMILES: CC1=C(CC(=O)O)c2cc(F)ccc2/C1=C\c1ccc(S(C)(=O)=O)cc1 [Sulindac sulphone]

FAAH-1 oleamide hydrolase activity, % of control (FAAH-1 [1]): below 50 % of control | IC50 (FAAH-1 [1]; [5]): 224 µM
SMILES: CC1=C(CC(=O)O)c2cc(F)ccc2/C1=C\c1ccc([S+](C)[O-])cc1 (stereo not drawn) [Sulindac]

IC50 (FAAH-1 [1]; [5]): 1000 µM
SMILES: Cc1onc(-c2ccccc2)c1-c1ccc(S(N)(=O)=O)cc1 [Valdecoxib]

FAAH-1 oleamide hydrolase activity, % of control (FAAH-1 [1]): appeared to enhance enzyme activity
SMILES: CC(=O)Oc1ccccc1C(=O)O [acetyl salicylic acid]
